US8350097B2, “Therapeutic compounds” (priority 2007, dated 2013)
“Also recorded” adds a separate entry of the source. Like-named read-outs stand apart in the source and are kept apart here. Marks after values point to notes of the source that are not given here.

Columns and labels:
[1] = Anesthetic effects in rats, bolus IV (LORR model of general anesthesia); assay type: in vivo, rat; details: male, Sprague-Dawley, rat, in vivo, read-out: MTD (maximum tolerated dose)
Method: (§1) Also measured was minimum dose to achieve LORR and maximum tolerated dose (MTD).
(§2) The ranges of doses studied were 2, 3, 4, 7, 14 and 21 mg/kg for Compound 1 and 3.5, 4.0, 7.0 and 14.0 mg/kg for […].

male Sprague-Dawley rats = assay: as above; assay type: in vivo, rat; details: for deaths / production of LORR by dose: 6 rats per dose group; for deaths: dose as stated
Method: as §1, §2

Beagle dogs [2] = assay: Hemodynamic effects (blood pressure) in beagle dogs, bolus IV; assay type: in vivo, dog; details: for MAP % change from baseline: 4 min after bolus IV
Method: The study was a crossover design. […] The MTD was defined as the dose that reduced mean arterial blood pressure (MAP) by 50% or to less than 50 millimeters of mercury (mmHg or mm Hg). All animals received supplemental oxygen and, if needed, ventilatory support after 4 min of apnea.
Hemodynamic data, such as mean arterial pressure (MAP), were recorded at baseline, 1, 2, 4, 8, 15, 20 and 30 min. Compound 1 was administered at 5, 10, 15 and 30 mg/kg to 6, 4, 3 and 3 dogs respectively. […] Data were analyzed with a 2-way ANOVA followed by t-test with Bonferroni correction for multiple comparisons.

Beagle dogs [3] = tested on: Beagle dogs
Male Sprague Dawley rats = assay: Test A. Loss of Righting Reflex Assay; assay type: in vivo, rat; details: for duration of anesthesia (loss of the Righting Reflex): 7 mg/kg bolus in tail vein, 1% formulation
Method: The ability of a compound of the invention to produce a sedative or hypnotic effect can be determined using standard pharmacological models which are well known to the art.
Test A. Loss of Righting Reflex Assay
Male Sprague Dawley rats were restrained in a holder and injection test compounds were injected in the tail vein (based on mg test compound/kg body weight). Following administration, the rats were placed in dorsal recumbent position on a heating blanket. The time to onset for the loss of the Righting Reflex (RR-ability of rat to right itself) was recorded, as was the duration of the loss of the RR.

[4] = Aqueous phase concentration in lipid emulsion (pain on injection surrogate), ultrafiltration + LC/MS/MS; assay type: physicochemical; details: for reduction in aqueous phase concentration compared to propofol in identical formulations: 1% lipid emulsions formulated per Example 5; for aqueous phase concentration: aqueous phase of 1% lipid emulsion separated by ultrafiltration
Method: The concentration of Compound 1 in the aqueous phase (aqueous phase concentration) of a lipid emulsion formulation was determined.
A one percent (1%) Compound 1 formulation was formulated in accordance with Example 5, Compound 1 being prepared as described in Example 2.

[5] = Pharmacokinetic study, IV infusion in domestic pigs; assay type: in vivo
Method: A 0.5% Compound 1 formulation, prepared as described in Example 2 and formulated in accordance with Example 6, was administered to 6 pigs via a 20-min intravenous (IV) infusion at 0.6 mg/kg/min (12 mg/kg total dose).

[6] = tested on: commercial farm-bred swine; assay type: in vivo, pig; details: pigs, 0.6 mg per kg per min
Method: Experiments were performed on commercial farm-bred swine of either sex (mean weight 33.6 kg). Anesthesia was induced with isoflurane. Intravascular access was obtained from an ear vein. Each pig was intubated and mechanically ventilated. Tissue oxygenation was monitored using continuous pulse oximetry placed on the tongue. Ventilation was monitored using an inspired/expired gas analyzer that measured oxygen, carbon dioxide, and potent inhalation agent concentrations. Ventilator settings were adjusted as needed to maintain steady state.
ECG was monitored throughout the study. Arterial blood pressure was monitored through the cannulated left femoral artery. MAP, systolic and diastolic arterial pressures and heart rate were collected every 5 seconds. An internal jugular vein was cannulated with a pulmonary artery catheter for thermodilution estimates of cardiac output and blood temperature. Body temperature was maintained at 37° C.

[7] = tested on: commercial farm-bred swine; assay: Hemodynamic effects, blood gas and serum chemistry in anesthetized ventilated pigs, IV infusion; assay type: in vivo, pig
Method: Anesthesia was induced with isoflurane. Intravascular access was obtained from an ear vein. Each pig was intubated and mechanically ventilated.
ECG was monitored throughout the study. […] Body temperature was maintained at 37° C.
Arterial blood gas samples from pigs infused with Compound 1 were taken and analyzed for blood gas and serum chemistry values.

Male descented ferrets [8] = assay: Pro-emetic activity in ferrets; details: 6 ferrets, IV infusion 15 min at 1 mg/kg/min, 45 min observation
Method: (§3) Male descented ferrets weighing 1.0-1.5 kg with vascular access ports in the jugular vein were housed on a 12/12-hour light/dark cycle under controlled temperature, with food and water provided ad libitum. On each study day, food was presented to ferrets one hour prior to dosing. Immediately prior to dosing, food and water were removed. A 1% Compound 1 formulation, prepared as described in Example 2 and formulated in accordance with Example 5, or […] was administered by IV infusion to the ferrets; see Wynn R L et al, 1993, Eur J Pharmacol 241, 42 re […] administration in ferrets. After administration of Compound 1 or […], animals were placed in clean, transparent cages (with lids) and left unrestrained for a 45-min observation period by an observer blinded to the specific treatment administered.
(§4) Episodes of retching and/or vomiting were considered separate episodes when the interval between retches and/or vomits exceeded 5 sec.

Male descented ferrets [9] = assay: Anti-emetic activity in ferrets (morphine sulfate-induced emesis); assay type: in vivo, ferret; details: 6 ferrets, 45 min observation
Method: as §3, §4
After termination of the infusion, 0.5 mg/kg morphine sulfate was administered subcutaneously and the ferrets were monitored for 45 min as described above. Six additional ferrets were administered subcutaneously 0.5 mg/kg morphine sulfate only.

pig = assay: Test B. Anesthetized Pig Model (hemodynamic profile); assay type: in vivo; details: equi-anesthetic doses (3 mg/kg vs propofol 6 mg/kg), FIGS. 1 and 2
Method: The hemodynamic profile of a compound of the invention can be determined using standard pharmacological models which are well known to the art. The hemodynamic and anesthetic profiles of a compound of the invention were evaluated simultaneously using an anesthetized pig model (as described in Test B below). In this assay, the hemodynamic profile of a compound of the invention was compared to that of propofol at equi-anesthetic doses.
Test B. Anesthetized Pig Model
The anesthetic induction will be performed using a modification of a technique described by Ko et al (Ko et al., Lab Anim Sci 1993; 43: 476-80) for swine (Telazol, xylazine and ketamine given as an intramuscular injection). […]
A pilot dose-finding study will be performed to establish an appropriate infusion dose for each agent. […] Blood samples (1 mL each) may be collected at pre-dose and at 2, 4, 6, 8, 10, 12, 15, 20, 22, […], 25, 35, 50, 65 and 80 minutes after the start of the first infusion for pharmacokinetic purposes; EEG will be recorded continuously as the primary pharmacodynamic endpoint. […]
The EEG signal will be fed to a BIS analyzer (Aspect Medical) which provides continuous output of processed EEG data. The output consists of a “BIS” number calculated by a proprietary algorithm that ranges between 100 (fully conscious) and 0 (isoelectric) and indicates brain activity. […]

[10] = 15 min IV infusion at 1 mg/kg/min then 0.5 mg/kg morphine sulfate s.c.
[11] = morphine sulfate 0.5 mg/kg subcutaneously alone

SMILES	MTD [1] [mg/kg]	HD50 (dose required to cause 50% of the rats to lose righting reflex) (male Sprague-Dawley rats) [mg/kg]	HD7 min (dose required to produce 7 minutes of anesthesia) (male Sprague-Dawley rats) [mg/kg]	TI (therapeutic index; ratio of MTD to HD7 min) (male Sprague-Dawley rats)	deaths (male Sprague-Dawley rats)	MAP % change from baseline (Beagle dogs [2]; 10 mg/kg)	MAP % change from baseline (Beagle dogs [2]; 15 mg/kg)	MAP % change from baseline (Beagle dogs [2]; 30 mg/kg)	duration of anesthesia (loss of the Righting Reflex) (Male Sprague Dawley rats) [min]	aqueous phase concentration [4] [µg/mL]	production of LORR by dose (male Sprague-Dawley rats)	duration of anesthesia (sleep time) (Beagle dogs [3]; dog, in vivo, iv, 5 mg/kg) [min]	duration of anesthesia (sleep time) (Beagle dogs [3]; dog, in vivo, iv, 10 mg/kg) [min]	duration of anesthesia (sleep time) (Beagle dogs [3]; dog, in vivo, iv, 15 mg/kg) [min]	duration of anesthesia (sleep time) (Beagle dogs [3]; dog, in vivo, iv, 30 mg/kg) [min]	also measured
CC[C@H](C)c1cccc(C(C)C)c1O [(S)-(+)-2-sec-butyl-6-isopropylphenol]	21	5	6.7	3.1	One of six rats died when administered 28 mg/kg	+3%	+1%	−33%								duration of anesthesia (sleep time) (Beagle dogs [3]; dogs, bolus IV, 5 mg/kg): 12 min; duration of anesthesia (sleep time) (Beagle dogs [3]; dogs, bolus IV, 10 mg/kg): 33 min; duration of anesthesia (sleep time) (Beagle dogs [3]; dogs, bolus IV, 15 mg/kg): 50 min; duration of anesthesia (sleep time) (Beagle dogs [3]; dogs, bolus IV, 30 mg/kg): 56 min
CC[C@@H](C)c1cccc(C(C)C)c1O [Compound 1, (R)-(−)-2-sec-butyl-6-isopropylphenol]	14	2.3	3.4	4.1	Three rats died when administered 21 mg/kg	5%	−19%	−41%	14.9	1.78 ± 0.17	LORR at all doses of at least 3 mg/kg	23	33	40	71	hypnotic potency compared to propofol (Male Sprague Dawley rats; Test A): more potent than propofol; reduction in aqueous phase concentration compared to propofol in DIPRIVAN ([4]; 1% Compound 1 formulation vs DIPRIVAN): 57%; reduction in aqueous phase concentration compared to propofol in identical formulations [4]: 72%; reduction in aqueous phase concentration compared to propofol in identical formulations ([4]; listed as (R)-(−)-2-sec-butyl-6-isopropylphenol): more than 70%; metabolic pathway [5]: glucuronidation in the 1-position with the 4-position being subject to hydroxylation followed by glucuronide and sulfate conjugation; Clearance ([5]; IV infusion): exceeded estimated hepatic blood flow; IV infusion time producing maximal suppression of BIS (<10) [6]: 17.3 ± 1.9 min; metabolic alterations (arterial blood gas and serum chemistry) ([7]; IV infusion 0.6 mg/kg/min): did not produce any significant metabolic alterations; episodes of vomiting or retching, drug administered alone (Male descented ferrets [8]): did not produce any episodes of vomiting or retching; retches in the presence of morphine (Male descented ferrets [9]; [10]): 47; vomits in the presence of morphine (Male descented ferrets [9]; [10]): 1; hemodynamic profile vs. propofol (pig): improved hemodynamic profile; anesthetic depth by Cumulative sedation scores (Beagle dogs [3]; dog, in vivo): approximately equipotent anesthetic depth; duration of anesthesia (sleep time) compared with propofol (Beagle dogs [3]; dog, in vivo, iv): similar; effect on BIS compared with propofol (Beagle dogs [3]; dog, in vivo, iv): greater effect on BIS at doses of at least 15 mg/kg
CN1CC[C@]23c4c5ccc(O)c4O[C@H]2[C@@H](O)C=C[C@H]3[C@H]1C5.O=S(=O)(O)O [Morphine sulfate, reference compound]																episodes of vomiting (Male descented ferrets [9]; [11]): 15; retches (Male descented ferrets [9]; [11]): 157
CC(C)c1cccc(C(C)C)c1O [propofol, 2,6-diisopropylphenol, reference compound]	< 14			<2		−22%	−32%	−66%*	7.1	6.28 ± 0.41	no LORR in 4 of 6 rats tested at 3.5 mg/kg	13	28	43	69	effect on MAP, comparison (Beagle dogs [2]; bolus IV): significantly greater effect on MAP than does Compound 1; also recorded: significantly greater effect on MAP than did (S)-(+)-2-sec-butyl-6-isopropylphenol; decrease in MAP, comparison ([7]; IV infusion, Compound 1 0.6 mg/kg/min vs propofol 0.750 mg/kg/min, FIG. 3): significantly larger decrease in MAP than Compound 1; lowest HR measured, comparison ([7]; IV infusion, Compound 1 0.6 mg/kg/min vs propofol 0.750 mg/kg/min, FIG. 4): significantly lower than the lowest HR measured for Compound 1; dogs reaching the MTD (MAP reduced by 50% or to less than 50 mmHg) (Beagle dogs [3]; dog, in vivo, iv, 15 mg/kg): Two of 3 dogs
